Results taken from the NIST ThermoML archive (doi:10.1021/je060271a).
“And” between values parts separate entries of the source, which are not always exact repeats. Equal values may be shown once.

Conditions: Liquid, Vibrating tube method

CCCCCC(=O)OCC(COC(=O)CCCCC)(COC(=O)CCCCC)COC(=O)CCCCC [pentaerythritol tetrahexanoate]
Conditions | mass density
323.17 K, 28058 kPa | 990.9 kg/m3
323.17 K, 28086 kPa | 991 kg/m3
323.17 K, 28114 kPa | 991 kg/m3
323.17 K, 28143 kPa | 991 kg/m3
323.17 K, 28171 kPa | 991 kg/m3
323.17 K, 28198 kPa | 991 kg/m3
323.17 K, 28227 kPa | 991 kg/m3
323.17 K, 28250 kPa | 991 kg/m3
323.17 K, 28280 kPa | 991.1 kg/m3
323.17 K, 32281 kPa | 993.5 kg/m3
323.17 K, 32302 kPa | 993.5 kg/m3
323.17 K, 32323 kPa | 993.5 kg/m3
323.17 K, 32340 kPa | 993.5 kg/m3
323.17 K, 32354 kPa | 993.5 kg/m3
323.18 K, 15635 kPa | 983.3 kg/m3
323.18 K, 15665 kPa | 983.3 kg/m3
323.18 K, 15689 kPa | 983.4 kg/m3
323.18 K, 15719 kPa | 983.4 kg/m3
323.18 K, 15747 kPa | 983.4 kg/m3
323.18 K, 15770 kPa | 983.3 kg/m3
323.18 K, 15797 kPa | 983.4 kg/m3
323.18 K, 15822 kPa | 983.4 kg/m3
323.18 K, 16186 kPa | 983.7 kg/m3
323.18 K, 16212 kPa | 983.6 kg/m3
323.18 K, 16234 kPa | 983.7 kg/m3
323.18 K, 16261 kPa | 983.7 kg/m3
323.18 K, 16283 kPa | 983.8 kg/m3
323.18 K, 25706 kPa | 989.7 kg/m3
343.14 K, 219.9 kPa | 957.2 kg/m3
343.14 K, 220 kPa | 957.3 kg/m3
343.14 K, 220.3 kPa | 957.1 kg/m3 and 957.2 kg/m3
343.14 K, 223.6 kPa | 957.3 kg/m3
343.14 K, 348.7 kPa | 957.3 kg/m3
343.14 K, 348.9 kPa | 957.2 kg/m3
343.14 K, 349 kPa | 957.3 kg/m3
343.14 K, 349.6 kPa | 957.4 kg/m3
343.14 K, 350.2 kPa | 957.3 kg/m3
343.14 K, 350.4 kPa | 957.2 kg/m3
343.14 K, 350.6 kPa | 957.3 kg/m3
343.14 K, 351.1 kPa | 957.3 kg/m3
343.14 K, 351.3 kPa | 957.3 kg/m3
343.14 K, 387.3 kPa | 957.4 kg/m3
343.14 K, 387.4 kPa | 957.2 kg/m3
343.14 K, 388.3 kPa | 957.4 kg/m3 and 957.5 kg/m3
343.14 K, 388.5 kPa | 957.4 kg/m3
343.14 K, 388.8 kPa | 957.5 kg/m3
343.14 K, 389.7 kPa | 957.3 kg/m3
343.14 K, 390.2 kPa | 957.5 kg/m3
343.14 K, 754.9 kPa | 957.7 kg/m3
343.14 K, 762.4 kPa | 957.6 kg/m3
343.14 K, 769.9 kPa | 957.7 kg/m3
343.14 K, 778.4 kPa | 957.6 kg/m3
343.14 K, 925.3 kPa | 957.8 kg/m3
343.14 K, 935.1 kPa | 957.8 kg/m3
343.14 K, 947.2 kPa | 957.8 kg/m3
343.14 K, 956.9 kPa | 957.8 kg/m3
343.14 K, 1145.7 kPa | 958 kg/m3
343.14 K, 1156.5 kPa | 958 kg/m3
343.14 K, 1168 kPa | 958 kg/m3
343.14 K, 1181.7 kPa | 958 kg/m3
343.14 K, 1193 kPa | 958 kg/m3
343.14 K, 1206.5 kPa | 958 kg/m3
343.14 K, 1218.3 kPa | 958 kg/m3
343.14 K, 1230.1 kPa | 958.1 kg/m3
343.14 K, 1242.1 kPa | 958.1 kg/m3
343.14 K, 1256.4 kPa | 958.1 kg/m3
343.14 K, 1268.3 kPa | 958 kg/m3
343.14 K, 2111 kPa | 958.7 kg/m3
343.14 K, 2133.5 kPa | 958.7 kg/m3
343.14 K, 2152.4 kPa | 958.7 kg/m3
343.14 K, 2172.4 kPa | 958.8 kg/m3
343.14 K, 2192.8 kPa | 958.8 kg/m3
343.14 K, 2212.6 kPa | 958.8 kg/m3
343.14 K, 2232.6 kPa | 958.8 kg/m3
343.14 K, 2256.5 kPa | 958.8 kg/m3
343.14 K, 2276.6 kPa | 958.9 kg/m3
343.14 K, 2301.1 kPa | 958.8 kg/m3
343.14 K, 2322.3 kPa | 958.9 kg/m3
343.14 K, 2342.9 kPa | 958.8 kg/m3
343.14 K, 2498.5 kPa | 959.1 kg/m3
343.14 K, 2520.2 kPa | 958.9 kg/m3
343.14 K, 2541.5 kPa | 959.1 kg/m3
343.14 K, 2567.9 kPa | 959 kg/m3
343.14 K, 2590.1 kPa | 959.1 kg/m3
343.14 K, 2612.1 kPa | 959 kg/m3
343.14 K, 2638.5 kPa | 959.1 kg/m3
343.14 K, 2660.7 kPa | 959.1 kg/m3
343.14 K, 2683.4 kPa | 959.2 kg/m3
343.14 K, 6196.6 kPa | 961.7 kg/m3
343.14 K, 6236.7 kPa | 961.9 kg/m3
343.14 K, 6269.8 kPa | 961.8 kg/m3
343.14 K, 6638.6 kPa | 962.2 kg/m3
343.14 K, 6667.6 kPa | 962.1 kg/m3
343.14 K, 6695.6 kPa | 962.2 kg/m3
343.14 K, 6726.9 kPa | 962.2 kg/m3
343.14 K, 7550.4 kPa | 962.9 kg/m3
343.14 K, 7576.5 kPa | 962.8 kg/m3
343.14 K, 7602.9 kPa | 962.8 kg/m3
343.14 K, 7633.5 kPa | 962.9 kg/m3
343.14 K, 7659 kPa | 962.9 kg/m3
343.14 K, 7685.3 kPa | 963 kg/m3
343.14 K, 7716.2 kPa | 962.9 kg/m3
343.14 K, 7742 kPa | 963 kg/m3
343.14 K, 8529.9 kPa | 963.5 kg/m3
343.14 K, 8557.5 kPa | 963.5 kg/m3
343.14 K, 8590 kPa | 963.6 kg/m3
343.14 K, 8617.8 kPa | 963.7 kg/m3
343.14 K, 8680.1 kPa | 963.6 kg/m3
343.14 K, 8708.7 kPa | 963.8 kg/m3
343.14 K, 11319 kPa | 965.5 kg/m3
343.14 K, 11356 kPa | 965.5 kg/m3
343.14 K, 11392 kPa | 965.6 kg/m3
343.14 K, 11435 kPa | 965.6 kg/m3
343.14 K, 11471 kPa | 965.7 kg/m3
343.14 K, 11507 kPa | 965.8 kg/m3
343.14 K, 11550 kPa | 965.7 kg/m3
343.14 K, 11586 kPa | 965.8 kg/m3
343.14 K, 11622 kPa | 965.8 kg/m3
343.14 K, 11664 kPa | 966 kg/m3
343.14 K, 12063 kPa | 966.2 kg/m3
343.14 K, 12100 kPa | 966.1 kg/m3
343.14 K, 12131 kPa | 966.2 kg/m3
343.14 K, 12213 kPa | 966.1 kg/m3
343.14 K, 17659 kPa | 969.9 kg/m3
343.14 K, 18549 kPa | 970.7 kg/m3
343.14 K, 18578 kPa | 970.7 kg/m3
343.14 K, 18602 kPa | 970.7 kg/m3
343.14 K, 18626 kPa | 970.7 kg/m3
343.14 K, 18893 kPa | 970.8 kg/m3
343.14 K, 20126 kPa | 971.6 kg/m3 and 971.7 kg/m3
343.14 K, 20127 kPa | 971.7 kg/m3
343.14 K, 20128 kPa | 971.7 kg/m3
343.14 K, 25755 kPa | 975.4 kg/m3
343.14 K, 25795 kPa | 975.4 kg/m3
343.14 K, 25825 kPa | 975.4 kg/m3
343.14 K, 25856 kPa | 975.4 kg/m3
343.14 K, 25888 kPa | 975.5 kg/m3
343.14 K, 25925 kPa | 975.6 kg/m3
343.14 K, 25957 kPa | 975.5 kg/m3
343.14 K, 25988 kPa | 975.6 kg/m3
343.14 K, 26018 kPa | 975.6 kg/m3
343.14 K, 26052 kPa | 975.6 kg/m3
343.15 K, 203.3 kPa | 957.3 kg/m3
343.15 K, 203.6 kPa | 957.2 kg/m3 and 957.3 kg/m3 and 957.1 kg/m3
